Patent publication US20170007620A1 (priority 2015, published 2017)
“Also recorded” adds a separate entry of the source.

Experiments:
[1] = system: one carbon pool products (AMP, ADP, ATP); experiment: One carbon pool products (AMP, ADP, ATP) in lymphocytes during DHEA-mediated EGSS (FIG. 5); conditions: DHEA 10 mg/kg daily per os 90 days ± reconstitution regimen
serotonin = experiment: Serotonin in intestinal mucosa biopsies of DHEA-treated neutered dogs (FIG. 7); assay type: in vivo; conditions: DHEA 10 mg/kg daily for 90 days ± supplementation
Description: The procedure of D'Souza, L and Glueck, H (Thromb Haemost. 1977 Dec. 15; 38(4):990-1001) was used to quantitate serotonin in intestinal biopsies obtained from neutered male and female dogs. Ten mg of intestinal mucosa was analyzed for each animal. […] Results are presented as percentage of values in pretreatment dogs, mean±SEM. MNSer, serotonin levels as quantitated in neutered male dogs; FNSer, serotonin levels as quantitated in female neutered dogs.

[2] = system: neutered mixed breed dogs; experiment: Physical symptoms / side effects of DHEA-mediated EGSS with and without reconstitution protocol (Table 1)
Description: Physical symptoms associated with DHEA-mediated EGSS-induced Nitric Oxide (NO) depletion.

IPA = IPA / isopentenylated tRNA quantitation in buffy coat lymphocytes of DHEA-treated neutered dogs (FIG. 3); assay type: in vivo
Description: (§1) FIG. 3. […] BH4 was assayed by the method of Niederwieser, A. et. al. (J Chromatogr. 1984 May 4; 290:237-46). For IPA quantitation, preliminary in vitro studies were performed in which DHEA-treated and control HT-29SF cells were exposed to [^3H]-mevalonic acid (saponified; data not shown). Total RNA was then isolated using the guanidinium thiocyanate method, hydrolyzed to free bases and isolated on an Aminex A9 column, with UV detection, as previously described (Nyce, J et. al., Proc Natl Acad Sci USA. 1993 Apr. 1; 90(7):2960-4). Increased incorporation of [^3H]-mevalonic acid into isopentenyladenosine peaks was interpreted as reduced pools of free unlabeled IPA into which the [^3H]-IPA equilibrated with high specific activity. (See Shultz and Nyce, Cancer Research 51(24):6563-7, 1992). This was borne out in in vivo experiments in neutered dogs treated with DHEA in which buffy coat lymphocytes were extracted and IPA quantitated with UV detection using the same HPLC procedure. […] Ubiquinone concentrations were quantitated from buffy coat samples by HPLC via the method of Abe, K. et. al., (J Nutr Sci Vitaminol (Tokyo). 1978; 24(6):555-67). For ease of presentation, pretreatment values for all 3 determinations (BH4, IPA and ubiquinone) were given a value of 1, with treatment values presented as their respective fraction thereof. […]

norepinephrine = experiment: Urinary free norepinephrine in neutered dogs undergoing DHEA-mediated EGSS (FIG. 9); assay type: in vivo; conditions: 24 hour urine, DHEA 10 mg/kg 90 days ± reconstitution regimen
Description: FIG. 9. […] Urinary free norepinephrine was quantitated by the method of Mell, L D and Gustafson, A B (Clin Chem 23(3): 473-6, 1977), using a Waters HPLC system with a C18 reverse phase column and UV detector. 24 hour urine was collected from neutered male and female animals in amber glass containment vessels. To 100 ml of urine was added 1 ml of concentrated HCL as preservative. […] This treatment continued for 90 days, at which time further urine specimens were collected and assayed for norepinephrine. The data are reported as the mean±SEM. MNNor, norepinephrine levels as quantitated in neutered male dogs; FNNor, norepinephrine levels as quantitated in neutered female dogs.

BH4 = system: BH4; set-up: species or system dogs; conditions: dog, in vivo
estrogen = experiment: Fecal estrogen in neutered female dogs before and after DHEA-mediated EGSS (FIG. 2); conditions: feces, DHEA 10 mg/kg p.o.
Description: Analyses were made in serum isolated from 4 intact male and 4 neutered male dogs of mixed breed, and in 3 intact female and 4 neutered female dogs of mixed breed. All were between 12 months and 24 months of age, and between 10 and 25 kg. […] For female dogs, estrogen was measured in anestrous for intact dogs. For both intact and neutered female dogs, the feces were collected over a period of 30 days, and thereafter the estrogens were extracted and quantitated using the procedure of Hofmann and Mostl (J Reprod Fertil Suppl 57:67-70, 2001). Results are reported as mean±SEM.
Comparison of testosterone and estrogen in neutered male and female dogs, respectively, before and after DHEA-mediated EGSS. The same neutered dogs from FIG. 1 were utilized. The same methodology was utilized as in FIG. 1. Dogs were exposed to escalating doses of DHEA until normal or near normal levels of testosterone or estradiol were achieved. […] Results are reported as the mean±SEM.

ubiquinone = experiment: Ubiquinone concentrations in buffy coat samples of DHEA-treated neutered dogs (FIG. 3); assay type: in vivo
Description: as §1

NO = experiment: Nitric oxide depletion and replenishment during DHEA-mediated EGSS; assay type: in vivo; conditions: animals undergoing DHEA-mediated EGSS
phenylalanine = experiment: Plasma phenylalanine in DHEA-treated neutered dogs (FIG. 10); conditions: DHEA-treated neutered dogs ± reconstitution protocol
Description: Before treatment, 10-15 ml blood samples were taken from male and female neutered dogs, and plasma was collected by low speed centrifugation by the standard method. The method of Neckers, L M et. al. (Clin Chem 27(1):146-8, 1981) was used to quantitate plasma phenylalanine concentrations, with fluorometric detection (280 nm excitation, 330 nm emission), and a 10 ul injection volume.

statin-treated cells = conditions: cited from earlier work
[3] = animals undergoing DHEA-mediated EGSS

With `Nc1nc(=O)c2c([nH]1)NCC(CNc1ccc(C(=O)N[C@@H](CCC(=O)O)C(=O)O)cc1)N2C=O` (mixture of isomers) [folinic acid] the “one carbon pool products (purines, pyrimidines, S-adenosylmethionine; AMP, ADP, ATP)” value [1] was “reconstitution”.
In the case of `C[C@]12CC[C@H](O)CC1=CC[C@@H]1[C@@H]2CC[C@]2(C)C(=O)CC[C@@H]12` [DHEA, Dehydroepiandrosterone], the serotonin level (serotonin) was “Depletion”, the motor incoordination [2, 3] was “sometimes occurs” and the lower extremity neuropathy ([2]; animals undergoing DHEA-mediated EGSS with or without supplementation) was “observed”. The “susceptibility to infections, particularly ear and eye” value ([2]; dogs and cats, DHEA in amounts sufficient to induce EGSS) was “have been noted”, the fluid retention ([2]; dogs, DHEA in amounts sufficient to induce EGSS) was “has been observed” and the “side effects of DHEA-mediated EGSS” value ([2]; doses required to induce EGSS in neutered animals) was “capable of causing many serious side effects; also recorded: auto-inflammatory-like disorder”. For the same compound, the vascular effects ([2]; during DHEA-mediated EGSS) was “induction of vasoconstriction”, the “one carbon pool products (purines, pyrimidines, S-adenosylmethionine; AMP, ADP, ATP)” value [1] was “profoundly depleted; also recorded: Depletion” and the IPA level (IPA; exogenous DHEA in amounts sufficient to induce EGSS) was “becomes depleted”. The “total pools of isopentenylated tRNA” value (IPA; neutered dogs treated with DHEA, buffy coat lymphocytes, HPLC UV) was “found to be depleted”, the urinary norepinephrine (norepinephrine) was “Depletion” and the BH4 level (BH4) was “depleted”. For the same compound, the estrogen level (estrogen) was “increases”, the “ubiquinone levels, continuous treatment” value (ubiquinone; continuous DHEA at doses capable of inducing EGSS, with or without supplementation) was “decline” and the “ubiquinone levels, short term” value (ubiquinone; short term DHEA exposure) was “increased”. For the same compound, the NO level (NO) was “depleted” and the plasma phenylalanine levels (phenylalanine) was “Increase”.
In the case of `CC(C)=CCNc1ncnc2nc[nH]c12` [Isopentenyladenine], the “activity in restoring DNA synthesis relative to mevalonate” value (statin-treated cells) is given as “approximately 100 fold”.
In the case of `N[C@@H](Cc1ccc(O)c(O)c1)C(=O)O` [L-DOPA], the emesis ([2]; dogs, alternative protocol with L-DOPA, pyridoxine, ascorbate, SAMe) was “emesis in some dogs”.
For `O=[N+]([O-])[O-].[K+]` [potassium nitrate], the “symptoms associated with NO depletion” value [2, 3] was “eliminating the symptoms” and the NO level (NO) was “can replenish NO”.
